Where “and” joins values, the source holds several entries; their conditions need not be identical. Identical values can stand only once. Counter-ions that a name gives are not always drawn.
Test: Microdose study of 14C-AlphaHGA in healthy volunteers, urine pharmacokinetics (AMS)
Type: in vivo, human
Conditions: for cumulative recovery of the dose in the urine over 24 hr: range; for AUCTmax / AUClast / Dlast / Dmax / Tmax / Tfirst / Tlast: urine
Experimental: In this example, the pharmacokinetics (PK) and oral bioavailability of AlphaHGA in adult healthy volunteers following a single ‘microdose’ in a sequence-randomized, cross-over study design (two periods 7 days apart) was determined. Clinical experiments were conducted with low-level radiolabelled (^14C) AlphaHGA administered intravenously (IV) orally (PO) with serial blood and urine samples were collected for concentration analysis utilizing accelerator mass spectrometry (AMS).
Accordingly, eight subjects were enrolled into a single dose cross-over study. The subjects were randomly assigned to one of two administration sequences. Subjects that were assigned to sequence 1 received AlphaHGA as an oral preparation first (Period 1) followed by the intravenous (IV) preparation 1 week later (Period 2). Subjects assigned to sequence 2 received AlphaHGA as an intravenous preparation first followed by the oral preparation 1 week later. Four subjects were assigned to sequence 1 and four subjects were assigned to sequence 2.
For both oral and IV doses subjects were administered 100 nCi (3.7 Kbq) of alphaHGA, which was determined to contain 1.602888×10ˆ6 fmol of ^14C. The specific activity of each dose was 46.619 MBq/mol (or 1.260 mCi/mol). A stock blend of ^14C-labelled alphaHGA was produced prior to the first study period. The actual formulations used for dosing were prepared on the morning prior to each study period. The infusion was a single bolus injection with both the infusion and flush were completed in less than 30 seconds.
Urine samples were collected at pre-dose and during post-dose time intervals: 0 to 4, 4 to 8, 8 to 12, 12 to 16, and 16 to 24 hours. All urine collections were obtained. Cumulative urine voidings for the specified time intervals were collected in standard collection containers without additional modifiers or preservatives
Plasma specimens (30 μL) were analyzed directly via the combustive procedure without further chemical manipulation. For the purposes of calculating ^14C concentration per volume of plasma, a general carbon content of 45% (dry mass) was applied. The urine was mixed with equal volumes (0.5 mL) of a sucrose carbon diluent solution (200 g/L) and mixed by inversion in a disposable polypropylene centrifuge tube. A 20-μL sample was graphitized for AMS analysis according to standard procedures. The mass fraction of the urine represented in the measured sample was inverted and multipled by the ^14C contents above background derived from the AMS measurement to calculate the ^14C content in the total urine void. A density value of 1 g/mL for urine was assumed to calculate its volume from the recorded masses.
Area-under-the-plasma-concentration-time curve from time zero to the last quantified concentration (AUClast), was calculated by the linear trapezoidal method from the observed concentrations. Area-under-the concentration-time curve from time zero to infinity (AUCinf) was obtained as the sum of AUClast and the extrapolation term Clast/λz, where Clast denotes the last observed quantifiable concentration. The percentage of AUCinf obtained by extrapolation (AUC % extrap) was calculated as [(AUCinf−AUClast)/AUCinf]*100. It should be noted that the area for the IV plasma data will result in an underestimation of the AUC in the first trapezoid because the concentration at time 0 was set to 0 and there is not reasonable way to impute a value at time 0. Area-under-the-concentration-time curve from time zero to the maximum concentration (AUCTmax) was calculated by the linear trapezoidal method. […]. This approach was necessary given the nature of the parameters requested by the sponsor.
Values for the following PK parameters were estimated from urine levels of AlphaHGA during the various time intervals. […]

[1] = route iv, individual subjects 1-8, period 1 or 2, hydrochloride, dosing period 1
[2] = route iv, individual subjects 1-8, period 1 or 2, hydrochloride, dosing period 2
[3] = route po, individual subjects 1-8, period 1 or 2, dosing period 1
[4] = route po, individual subjects 1-8, period 1 or 2, dosing period 2
[5] = route po, individual subjects 1-8, period 1 or 2, hydrochloride, dosing period 1
[6] = route po, individual subjects 1-8, period 1 or 2, hydrochloride, dosing period 2

**Q.** For `NC(=O)C(N)O` (stereo not drawn) [AlphaHGA, α-Hydroxy-glycinamide hydrochloride], which “cumulative recovery of the dose in the urine over 24 hr, mean” value (IV administration) is on record?
**A.** 63.7

**Q.** And the “cumulative recovery of the dose in the urine over 24 hr” value (IV administration)?
**A.** 35-100%

**Q.** What about the “cumulative recovery of the dose in the urine over 24 hr” value (oral administration) of the same molecule?
**A.** 34-100%

**Q.** And the AUCTmax (Period 1, Max)?
**A.** 748180 fmol·h

**Q.** And the AUClast (Period 1, Max)?
**A.** 2934335 fmol·h

**Q.** What about the Dlast (Period 1, Max) of the same molecule?
**A.** 41355 fmol

**Q.** And the Dmax (Period 1, Max)?
**A.** 374090 fmol

**Q.** And the AUCTmax (Period 1, Mean)?
**A.** 654984 fmol·h

**Q.** And the AUClast (Period 1, Mean)?
**A.** 2575235 fmol·h

**Q.** And the Dlast (Period 1, Mean)?
**A.** 29774 fmol

**Q.** And the Dmax (Period 1, Mean)?
**A.** 327492 fmol

**Q.** What about the AUCTmax (Period 1, Min) of the same molecule?
**A.** 459180 fmol·h

**Q.** And the AUClast (Period 1, Min)?
**A.** 2239453 fmol·h

**Q.** What about the Dlast (Period 1, Min) of the same molecule?
**A.** 19395 fmol

**Q.** And the Dmax (Period 1, Min)?
**A.** 229590 fmol

**Q.** What about the AUCTmax (Period 2, Max) of the same molecule?
**A.** 1882171 fmol·h

**Q.** What about the AUClast (Period 2, Max) of the same molecule?
**A.** 6993866 fmol·h

**Q.** What about the Dlast (Period 2, Max) of the same molecule?
**A.** 133040 fmol

**Q.** What about the Dmax (Period 2, Max) of the same molecule?
**A.** 941085 fmol

**Q.** What about the AUCTmax (Period 2, Mean) of the same molecule?
**A.** 1437891 fmol·h

**Q.** What about the AUClast (Period 2, Mean) of the same molecule?
**A.** 6007590 fmol·h

**Q.** What about the Dlast (Period 2, Mean) of the same molecule?
**A.** 98450 fmol

**Q.** And the Dmax (Period 2, Mean)?
**A.** 718945 fmol

**Q.** And the AUCTmax (Period 2, Min)?
**A.** 1207722 fmol·h

**Q.** What about the AUClast (Period 2, Min) of the same molecule?
**A.** 5220702 fmol·h

**Q.** And the Dlast (Period 2, Min)?
**A.** 48888 fmol

**Q.** And the Dmax (Period 2, Min)?
**A.** 603861 fmol

**Q.** And the AUCTmax (Route iv, Max)?
**A.** 1489152 fmol·h

**Q.** What about the AUClast (Route iv, Max) of the same molecule?
**A.** 6540408 fmol·h

**Q.** And the Dlast (Route iv, Max)?
**A.** 114767 fmol

**Q.** What about the Dmax (Route iv, Max) of the same molecule?
**A.** 744576 fmol

**Q.** And the AUCTmax (Route iv, Mean)?
**A.** 964045 fmol·h

**Q.** And the AUClast (Route iv, Mean)?
**A.** 4155954 fmol·h

**Q.** What about the Dlast (Route iv, Mean) of the same molecule?
**A.** 61864 fmol

**Q.** And the Dmax (Route iv, Mean)?
**A.** 482022 fmol

**Q.** What about the AUCTmax (Route iv, Min) of the same molecule?
**A.** 459180 fmol·h

**Q.** What about the AUClast (Route iv, Min) of the same molecule?
**A.** 2368127 fmol·h

**Q.** And the Dlast (Route iv, Min)?
**A.** 19716 fmol

**Q.** What about the Dmax (Route iv, Min) of the same molecule?
**A.** 229590 fmol

**Q.** And the AUCTmax (Route po, Max)?
**A.** 1882171 fmol·h

**Q.** What about the AUClast (Route po, Max) of the same molecule?
**A.** 6993866 fmol·h

**Q.** What about the Dlast (Route po, Max) of the same molecule?
**A.** 133040 fmol

**Q.** And the Dmax (Route po, Max)?
**A.** 941085 fmol

**Q.** And the AUCTmax (Route po, Mean)?
**A.** 1128830 fmol·h

**Q.** And the AUClast (Route po, Mean)?
**A.** 4426871 fmol·h

**Q.** And the Dlast (Route po, Mean)?
**A.** 66360 fmol

**Q.** What about the Dmax (Route po, Mean) of the same molecule?
**A.** 564415 fmol

**Q.** And the AUCTmax (Route po, Min)?
**A.** 710260 fmol·h

**Q.** What about the AUClast (Route po, Min) of the same molecule?
**A.** 2239453 fmol·h

**Q.** What about the Dlast (Route po, Min) of the same molecule?
**A.** 19395 fmol

**Q.** What about the Dmax (Route po, Min) of the same molecule?
**A.** 355130 fmol

**Q.** What about the Tmax (route iv, individual subjects 1-8, period 1 or 2) of the same molecule?
**A.** 4 h

**Q.** And the Tfirst (route iv, individual subjects 1-8, period 1 or 2, dosing period 1)?
**A.** 4 h

**Q.** And the Tfirst (route iv, individual subjects 1-8, period 1 or 2, dosing period 2)?
**A.** 4 h

**Q.** And the AUCTmax [1]?
**A.** 684594 fmol·h and 543376 fmol·h and 639322 fmol·h and 459180 fmol·h

**Q.** What about the AUClast [1] of the same molecule?
**A.** 2934335 fmol·h and 2573446 fmol·h and 2551259 fmol·h and 2368127 fmol·h

**Q.** What about the Dlast [1] of the same molecule?
**A.** 32699 fmol and 40072 fmol and 41355 fmol and 19716 fmol

**Q.** And the Dmax [1]?
**A.** 342297 fmol and 271688 fmol and 319661 fmol and 229590 fmol

**Q.** And the Tlast [1]?
**A.** 24 h

**Q.** And the AUCTmax [2]?
**A.** 1207722 fmol·h and 1479193 fmol·h and 1489152 fmol·h and 1209818 fmol·h

**Q.** And the AUClast [2]?
**A.** 5505102 fmol·h and 5554250 fmol·h and 6540408 fmol·h and 5220702 fmol·h

**Q.** What about the Dlast [2] of the same molecule?
**A.** 48888 fmol and 88098 fmol and 109317 fmol and 114767 fmol

**Q.** And the Dmax [2]?
**A.** 603861 fmol and 739597 fmol and 744576 fmol and 604909 fmol

**Q.** And the Tlast [2]?
**A.** 24 hr (3×) and 16 hr

**Q.** And the Tmax (route po, individual subjects 1-8, period 1 or 2)?
**A.** 4 h

**Q.** And the Tfirst [3]?
**A.** 4 h

**Q.** What about the Tlast [3] of the same molecule?
**A.** 24 h

**Q.** And the Tfirst [4]?
**A.** 4 h

**Q.** What about the Tlast [4] of the same molecule?
**A.** 24 h

**Q.** And the AUCTmax [5]?
**A.** 727839 fmol·h and 710260 fmol·h and 727119 fmol·h and 748180 fmol·h

**Q.** What about the AUClast [5] of the same molecule?
**A.** 2696170 fmol·h and 2239453 fmol·h and 2618588 fmol·h and 2620500 fmol·h

**Q.** What about the Dlast [5] of the same molecule?
**A.** 22280 fmol and 30936 fmol and 19395 fmol and 31737 fmol

**Q.** What about the Dmax [5] of the same molecule?
**A.** 363920 fmol and 355130 fmol and 363559 fmol and 374090 fmol

**Q.** What about the AUCTmax [6] of the same molecule?
**A.** 1882171 fmol·h and 1326533 fmol·h and 1425912 fmol·h and 1482625 fmol·h

**Q.** And the AUClast [6]?
**A.** 6993866 fmol·h and 6127092 fmol·h and 6093252 fmol·h and 6026045 fmol·h

**Q.** What about the Dlast [6] of the same molecule?
**A.** 80465 fmol and 133040 fmol and 109798 fmol and 103226 fmol

**Q.** What about the Dmax [6] of the same molecule?
**A.** 941085 fmol and 663266 fmol and 712956 fmol and 741313 fmol

From patent publication US20080076824A1, “Compounds That Inhibit Replication Of Human Immunodeficiency Virus” (priority 2004, published 2008)
